pIC50: −log10 of the molar value.
Key:
RAW264.7 [1] = test: Cytotoxicity against mouse RAW264.7 cells incubated for 5 hrs followed by replacement with fresh media measured after 72 hrs by XTT assay; type: functional, cell-based
RAW264.7 [2] = test: Antiinflammatory activity in mouse RAW264.7 cells assessed as inhibition of LPS-induced TNFalpha production after 72 hrs […]; type: functional, cell-based; settings: RAW264.7, 72 h
RAW264.7 [3] = test: Displacement of [3H]-folic acid from folate receptor on mouse RAW264.7 cells assessed as relative binding after 1 hr by liquid scintillation counting; type: cell-based

`CC[C@H](C)[C@H]1NC(=O)[C@@H](NC(=O)[C@@H](CC(C)C)N(C)C(=O)[C@H]2CCCN2C(=O)C(C)OC(=O)OCCSSC[C@H](NC(=O)[C@H](CC(=O)O)NC(=O)[C@H](CC(=O)O)NC(=O)[C@H](CCCNC(=N)N)NC(=O)[C@H](CC(=O)O)NC(=O)CC[C@H](NC(=O)c2ccc(NCc3cnc4nc(N)[nH]c(=O)c4n3)cc2)C(=O)O)C(=O)O)[C@@H](C)OC(=O)[C@H](Cc2ccc(OC)cc2)N(C)C(=O)[C@@H]2CCCN2C(=O)[C@H](CC(C)C)NC(=O)[C@@H](C)C(=O)[C@H](C(C)C)OC(=O)C[C@@H]1O` (some centres undefined) [FOLATE DIDEMNIN B] was tested, and the Activity (RAW264.7 [1]) was “Dose-dependent effect”, the pIC50 (RAW264.7 [1]) was 7.89 and the pIC50 (RAW264.7 [2]) was 8.30. For the same molecule, the relative binding affinity (RBA) (RAW264.7 [3]) was 0.18.

— ChEMBL document CHEMBL1944525, “Synthesis and activity of folate conjugated didemnin B for potential treatment of inflammatory diseases” (Bioorg Med Chem Lett, 2012)
